Results taken from patent EP4653437A2 (Innovo Therapeutics Inc., priority 2023, dated 2024).

Tests used:
[1] = tested on: A549 cells; assay: Measurement of PGE2-increasing activity in A549 cells (IL-1β stimulated, PGE2 quantified in supernatant); assay type: cell-based; settings: Homo sapiens, 24 h; concentration of 1 µM of each compound; IL-1β treated A549 cells; read-out: Increased PGE2 production in A549 cells
Summary of the method: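 PGE2 secreted into the supernatant was measured by immunoassay 24 h after treatment. Before treatment, A549 cells were cultured 24 h in 10% FBS F12K, washed, and placed in serum-free medium containing compound (DMSO 0.1% final) plus or minus IL-1β, incubated at 37 °C, 5% CO2.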

[2] = target: T1, human 15-PGDH (Homo sapiens, UniProt P15428); assay: Evaluation of 15-PGDH inhibitory activity (fluorescence enzyme assay, NAD+/PGE2); assay type: biochemical; settings: human 15-PGDH enzyme, fluorescence Vmax
T1 construct: purchased R&D System 5660-DH
T1 sequence (P15428 1-266): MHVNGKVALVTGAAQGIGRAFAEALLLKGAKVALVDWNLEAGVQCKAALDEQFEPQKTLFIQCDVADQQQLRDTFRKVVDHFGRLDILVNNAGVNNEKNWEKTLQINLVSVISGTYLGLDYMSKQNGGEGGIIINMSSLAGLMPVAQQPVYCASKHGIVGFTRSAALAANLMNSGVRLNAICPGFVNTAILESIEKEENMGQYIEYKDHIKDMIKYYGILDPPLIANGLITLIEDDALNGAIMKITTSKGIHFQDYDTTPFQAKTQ
Experimental: 15-PGDH inhibition activity of Example compounds was measured as follows. 6.7 ng of human 15-PGDH (R&D System# 5660-DH) enzyme (10 µL) was added to a black 96 well plate, 60 µL of buffer (50 mM Tris-HCl, pH 7.5, 0.01% Tween 20) was added, and 10 µL of 200 µM β-Nicotinamide adenine dinucleotide sodium salt (Sigma, Cat# N0632-5G) was added. 10 µL of (10x) compound solution in DMSO was added and reacted for 10 minutes at room temperature.

Row | Compound | fold induction at 1 µM [1] | IC50 [2] [nM]
1 | O=C(Cc1ccc(C(F)(F)F)nc1)Nc1ccc(-c2cccc3c(C(=O)N4CCCCC4)cnn23)cn1 [Example 408, N-[5-[3-(piperidine-1-carbonyl)pyrazolo[1,5-a]pyridin-7-yl]-2-pyridyl]-2-[6-(trifluoromethyl)-3-pyridyl]acetamide] | > 1.5 | ≤ 100
2 | O=C(Cc1cncc(F)c1)Nc1ccc(-c2cccc3c(C(=O)N4CCCCC4)cnn23)cn1 [Example 409, 2-(5-fluoropyridin-3-yl)-N-(5-(3-(piperidine-1-carbonyl)pyrazolo[1,5-a]pyridin-7-yl)pyridin-2-yl)acetamide] | > 1.5 | ≤ 100
3 | O=C(COc1ccc(Cl)cc1)Nc1ccc(-c2cccc3c(C(=O)N4CCCCC4)cnn23)cn1 [Example 410, 2-(4-chlorophenoxy)-N-[5-[3-(piperidine-1-carbonyl)pyrazolo[1,5-a]pyridin-7-yl]-2-pyridyl]acetamide] | > 1.5 | ≤ 100
4 | O=C1NCc2ccc(-c3cccc4c(C(=O)N5CC6(CC(F)C6)C5)cnn34)cc21 [Example 411, 6-(3-(6-fluoro-2-azaspiro[3.3]heptane-2-carbonyl)pyrazolo[1,5-a]pyridin-7-yl)isoindolin-1-one] | > 1.5 | ≤ 100
5 | O=C1NCc2ccc(-c3cccc4c(C(=O)N5CC6(C5)CC(F)(F)C6)cnn34)cc21 [Example 412, 6-(3-(6,6-difluoro-2-azaspiro[3.3]heptane-2-carbonyl)pyrazolo[1,5-a]pyridin-7-yl)isoindolin-1-one] | > 1.5 | ≤ 100
